Experimental data as given in patent US20230406829A1, “Heterocyclic Compound and Preparation Method and Use Thereof” (SYNTRON (JIANGSU) PHARMACEUTICAL TECHNOLOGY CO., LTD., priority 2020, published 2023).

target: T1, recombinant human VISTA protein (Homo sapiens, UniProt Q9H7M9); assay: Inhibition of VISTA interaction: rescue of IFN-γ release in human PBMC (ELISA); format: cell-based; conditions: 72 h, read-out: IC50 (VISTA interaction inhibitory activity)
T1 construct: purchased R & D Systems 7126-B7
Protocol: • 2. Determination of the inhibition effect of the compounds against VISTA interaction: • (1) Experimental Equipment and Reagents • 1. […] SpectraMax i3X Multifunction microplate reader (Molecular Device) • 3. […] Experimental procedure: • 1.1 Recombinant human VISTA (2.5 μg/ml) and anti-human CD3 antibody (2.5 μg/ml) were added to 96-well plates and stored in 4 C overnight. • 1.2 The next day, the anti-human VISTA antibody was added to the co-incubation for 30 min. Thereafter, cells were washed with 1*PBS and test compounds were added for 30 min. […] At 37 C, 5% CO2Below the conditions, the incubation was continued for 72 h. • 1.3 After separation by centrifugation at 4 C, 200 g*5 min, the supernatant was collected.

T1 sequence (Q9H7M9 with tags, fused parts or gaps limits assumed): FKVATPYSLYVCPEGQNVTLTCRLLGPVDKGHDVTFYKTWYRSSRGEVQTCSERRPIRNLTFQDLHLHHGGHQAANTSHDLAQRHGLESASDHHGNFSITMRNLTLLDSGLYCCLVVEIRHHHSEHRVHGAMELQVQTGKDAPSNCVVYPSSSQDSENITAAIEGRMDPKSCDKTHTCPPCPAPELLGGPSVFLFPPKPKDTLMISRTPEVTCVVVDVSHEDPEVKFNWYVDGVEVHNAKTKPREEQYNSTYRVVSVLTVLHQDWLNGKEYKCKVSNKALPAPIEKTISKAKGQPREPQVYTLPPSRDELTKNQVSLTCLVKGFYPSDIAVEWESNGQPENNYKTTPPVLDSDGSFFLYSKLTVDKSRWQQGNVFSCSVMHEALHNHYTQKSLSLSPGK

Compared with `Cc1c(-c2ccccc2)ccc2[nH]c(-c3cccc(OCc4cccnc4)c3)nc12` [Compound 21], `Cc1c(-c2ccccc2)ccc2[nH]c(-c3cccc(OCc4ccccc4)c3)nc12` [Compound 20] is lower in IC50: 100 to 1000 nM for the first, 1 to 100 nM for the second.

`COc1cc(-c2nc3c(C)c(-c4ccccc4)ccc3[nH]2)ccc1CNC[C@@H]1CCC(=O)N1` [Compound 24] and `COc1cc(-c2nc3c(C)c(-c4ccccc4)ccc3[nH]2)ccc1CN1CC[C@@H](O)C1` [Compound 23] fall in the same range of IC50: 1 to 100 nM for the first, 1 to 100 nM for the second.

`CC(=O)NCCNCc1cccc(-c2nc3ccccc3[nH]2)c1` [Compound 29] and `CC(=O)NCCNCc1cccc(-c2nc3cc(C)ccc3[nH]2)c1` [Compound 34] fall in the same range of IC50: 1 to 100 nM for the first, 1 to 100 nM for the second.

`COc1cc2cc(-c3cccc(CNCCNC(C)=O)c3)cn2cn1` [Compound 46] and `CC(=O)NCCNCc1cccc(-c2cc3ccncn3c2)c1` [Compound 45] fall in the same range of IC50: 1 to 100 nM for the first, 1 to 100 nM for the second.

`CC(=O)NCCNCc1cccc(-c2cc3c(C)c(-c4ccccc4)ccn3c2)c1` [Compound 44] and `CC(=O)NCCNCc1cccc(-c2nc3c(C)c(-c4ccccc4)ccn3n2)c1` [Compound 50] fall in the same range of IC50: 100 to 1000 nM for the first, 100 to 1000 nM for the second.

`CC(=O)NCCNCc1cccc(C2=NC3C=CC(c4ccccc4)=C(C)C3S2)c1` (centres unmarked) [Compound 53] and `CC(=O)NCCNCc1cccc(C2=NC3C=CC(c4ccccc4)=C(C)C3O2)c1` (centres unmarked) [Compound 52] fall in the same range of IC50: 100 to 1000 nM for the first, 100 to 1000 nM for the second.

First: Cc1c(-c2ccccc2)ccc2nc(-c3cccc(CNCCN)c3)[nH]c12 [Compound 7]
Second: Cc1c(-c2ccccc2)ccc2nc(-c3cccc(CNCC(=O)O)c3)[nH]c12 [Compound 2]
The IC50 of the first is lower: 1 to 100 nM for the first, 100 to 1000 nM for the second.

`Cc1c(-c2ccccc2)ccc2[nH]c(-c3ccc(CNCC(=O)O)cc3)nc12` [Compound 11] and `Cc1c(-c2ccccc2)ccc2[nH]c(-c3ccc(CNC[C@@H](O)CC(=O)O)cc3)nc12` [Compound 15] fall in the same range of IC50: 1 to 100 nM for the first, 1 to 100 nM for the second.

First: Cc1c(-c2ccccc2)ccc2[nH]c(-c3cccc(CN4CC[C@@H](O)C4)c3)nc12 [Compound 8]
Second: Cc1c(-c2ccccc2)ccc2[nH]c(-c3cccc(CN4CCCC[C@H]4C(=O)O)c3)nc12 [Compound 4]
The IC50 of the first is higher: 100 to 1000 nM for the first, 1 to 100 nM for the second. The second is the more potent here.

`CC(=O)NCCNCc1cccc(-c2nc3c(O)cccc3[nH]2)c1` [Compound 59] and `CC(=O)NCCNCc1cccc(-c2nc3c(O)c(O)ccc3[nH]2)c1` [Compound 60] fall in the same range of IC50: 1 to 100 nM for the first, 1 to 100 nM for the second.

`CC(=O)NCCNCc1ccc(-c2cn3c(C)c(-c4ccccc4)ccc3n2)cc1` [Compound 26] and `Cc1c(-c2ccccc2)ccc2nc(-c3ccc(CNCCO)cc3)cn12` [Compound 25] fall in the same range of IC50: 100 to 1000 nM for the first, 100 to 1000 nM for the second.

First: CC(=O)NCCNCc1cccc(C2=CC3C=CC(c4ccccc4)=NC3O2)c1 (centres unmarked) [Compound 51]
Second: CC(=O)NCCNCc1cccc(-c2nc3cc(-c4ccccc4)ccc3[nH]2)c1 [Compound 32]
The IC50 of the first is higher: 100 to 1000 nM for the first, 1 to 100 nM for the second.

Compared with `CC(=O)NCCNCc1cccc(-c2nc3cc(C#N)ccc3[nH]2)c1` [Compound 64], `COc1ccc2[nH]c(-c3cccc(CNCCNC(C)=O)c3)nc2c1` [Compound 35] is higher in IC50: 1 to 100 nM for the first, 100 to 1000 nM for the second. The first is the more potent here.

First: CC(=O)NCCNCc1cccc(-c2nc3c(C)c(-c4ccc5c(c4)OCCO5)ccc3[nH]2)c1 [Compound 18]
Second: CC(=O)NCCNCc1cccc(-c2nc3c4c(ccc3[nH]2)OCCO4)c1 [Compound 61]
The IC50 of the first is lower: 1 to 100 nM for the first, 100 to 1000 nM for the second. The first is the more potent here.

First: Cc1c(-c2ccccc2)ccc2nc(-c3cccc(CNCCO)c3)cn12 [Compound 27]
Second: CC(=O)NCCNCc1cccc(-c2cn3ncc(-c4ccccc4)c(C)c3n2)c1 [Compound 48]
The IC50 of the first is lower: 1 to 100 nM for the first, 100 to 1000 nM for the second. The first is the more potent here.

First: CC(=O)NCCNCc1cccc(-c2nc3cc(OCc4ccccc4)ccc3[nH]2)c1 [Compound 63]
Second: CC(=O)NCCNCc1cccc(-c2nc3c(F)c(-c4ccccc4)ccc3[nH]2)c1 [Compound 36]
The IC50 of the first is higher: 100 to 1000 nM for the first, 1 to 100 nM for the second.

`Cc1c(-c2ccccc2)ccc2[nH]c(-c3cccc(C(=O)O)c3)nc12` [Compound 31] and `Cc1c(-c2ccccc2)ccc2[nH]c(-c3cccc(C(=O)NCCO)c3)nc12` [Compound 38] fall in the same range of IC50: 1 to 100 nM for the first, 1 to 100 nM for the second.

First: CC(=O)NCCNCc1cccc(-c2nc3c(O)c(-c4ccccc4)ccc3[nH]2)c1 [Compound 54]
Second: CC(=O)NCCNCc1cccc(-c2nc3c(C)c(-c4ccccc4)ccc3[nH]2)c1 [Compound 1]
The IC50 of the first is higher: 100 to 1000 nM for the first, 1 to 100 nM for the second. The second is the more potent here.

`Cc1c(-c2ccccc2)ccc2[nH]c(-c3cccc(OCCNCCO)c3)nc12` [Compound 39] and `COc1cccc(-c2nc3c(C)c(-c4ccccc4)ccc3[nH]2)c1` [Compound 19] fall in the same range of IC50: 100 to 1000 nM for the first, 100 to 1000 nM for the second.

`CCCOC(=O)c1cccc(-c2nc3c(C)c(-c4ccccc4)ccc3[nH]2)c1` [Compound 42] and `Cc1c(-c2ccccc2)ccc2[nH]c(-c3cccc(COCCN)c3)nc12` [Compound 40] fall in the same range of IC50: 100 to 1000 nM for the first, 100 to 1000 nM for the second.

`CC(=O)NCCNCc1ccc(-c2nc3ccc(-c4ccccc4)c(C)c3[nH]2)cc1` [Compound 10] and `Cc1c(-c2ccccc2)ccc2nc(-c3ccc(CNCCO)cc3)[nH]c12` [Compound 12] fall in the same range of IC50: 100 to 1000 nM for the first, 100 to 1000 nM for the second.

`Cc1c(-c2ccccc2)ccc2[nH]c(-c3cccc(CNC[C@@H](O)CC(=O)O)c3)nc12` [Compound 6] and `Cc1c(-c2ccccc2)ccc2[nH]c(-c3cccc(CN[C@H](CO)C(=O)O)c3)nc12` [Compound 5] fall in the same range of IC50: 1 to 100 nM for the first, 1 to 100 nM for the second.

First: Cc1c(-c2ccccc2)ccc2[nH]c(-c3cccc(CNC[C@@H]4CCNC4=O)c3)nc12 [Compound 9]
Second: Cc1c(-c2ccccc2)ccc2[nH]c(-c3cccc(S(=O)(=O)NCCO)c3)nc12 [Compound 41]
The IC50 of the first is lower: 1 to 100 nM for the first, 100 to 1000 nM for the second. The first is the more potent here.

First: CCc1c(-c2ccccc2)ccc2[nH]c(-c3cccc(CNCCNC(C)=O)c3)nc12 [Compound 56]
Second: CC(=O)NCCNCc1cccc(-c2nc3c(CO)c(-c4ccccc4)ccc3[nH]2)c1 [Compound 58]
The IC50 of the first is lower: 1 to 100 nM for the first, 100 to 1000 nM for the second.

First: Cc1c(-c2ccccc2)ccc2[nH]c(-c3ccc(CN[C@H](CO)C(=O)O)cc3)nc12 [Compound 14]
Second: Cc1c(-c2ccccc2)ccc2[nH]c(-c3ccc(CN4CCCC[C@H]4C(=O)O)cc3)nc12 [Compound 13]
The IC50 of the first is higher: 100 to 1000 nM for the first, 1 to 100 nM for the second. The second is the more potent here.

`CC(=O)NCCNC(=O)c1cccc(-c2nc3c(C)c(-c4ccccc4)ccc3[nH]2)c1` [Compound 30] and `CC(=O)NCCNCc1cccc(-c2nc3c(Cl)c(-c4ccccc4)ccc3[nH]2)c1` [Compound 17] fall in the same range of IC50: 1 to 100 nM for the first, 1 to 100 nM for the second.

`COc1c(-c2ccccc2)ccc2[nH]c(-c3cccc(CNCCNC(C)=O)c3)nc12` [Compound 55] and `CC(=O)NCCNCc1cccc(-c2nc3c(Br)c(-c4ccccc4)ccc3[nH]2)c1` [Compound 16] fall in the same range of IC50: 1 to 100 nM for the first, 1 to 100 nM for the second.

First: CC(=O)NCCNCc1cccc(-c2nc3c(C(F)(F)F)c(-c4ccccc4)ccc3[nH]2)c1 [Compound 37]
Second: CC(=O)NCCNCc1cccc(-c2nc3c(C#N)c(-c4ccccc4)ccc3[nH]2)c1 [Compound 57]
The IC50 of the first is higher: 100 to 1000 nM for the first, 1 to 100 nM for the second. The second is the more potent here.

`CC(=O)NCCNCc1cccc(-c2nc3cc(CO)ccn3n2)c1` [Compound 49] and `CC(=O)NCCNCc1cccc(-c2cc3ccccn3c2)c1` [Compound 43] fall in the same range of IC50: 100 to 1000 nM for the first, 100 to 1000 nM for the second.

First: CC(=O)NCCNCc1cccc(-c2nc3ccc(Br)c(C)c3[nH]2)c1 [Compound 28]
Second: CC(=O)NCCNCc1cccc(-c2nc3cc(-c4ccco4)ccc3[nH]2)c1 [Compound 62]
The IC50 of the first is lower: 1 to 100 nM for the first, 100 to 1000 nM for the second.

`Cc1c(-c2ccccc2)ccc2[nH]c(-c3ccc(CNCCO)c(OCc4cccnc4)c3)nc12` [Compound 22] and `CC(=O)NCCNCc1cccc(-c2cn3ccc(-c4ccccc4)nc3n2)c1` [Compound 47] fall in the same range of IC50: 1 to 100 nM for the first, 1 to 100 nM for the second.

target: T2, VISTA protein modified by glycosylation (Homo sapiens, UniProt Q9H7M9); assay: Binding ability of compounds to VISTA protein (Biacore S200, CM5 chip); conditions: compound diluted in 1.05*PBS-P, fitted
T2 sequence (Q9H7M9 33-311): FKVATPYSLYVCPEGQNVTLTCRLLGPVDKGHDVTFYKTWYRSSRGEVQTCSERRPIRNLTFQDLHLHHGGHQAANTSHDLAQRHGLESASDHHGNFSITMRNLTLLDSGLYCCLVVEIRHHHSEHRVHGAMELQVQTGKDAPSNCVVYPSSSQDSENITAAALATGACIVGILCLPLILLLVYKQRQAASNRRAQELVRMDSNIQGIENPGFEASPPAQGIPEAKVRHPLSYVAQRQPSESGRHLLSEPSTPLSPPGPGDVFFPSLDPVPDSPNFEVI
From the text: Ability ability of compounds to VISTA protein • (I) Experimental Equipment and Reagents • 1. The machine model used in this experiment is: Biacore S200. • 2. S-series CM5 chip. […] Goods number: BR-1000-50, the purchase place is GE Healthcare. • 4.

`Cc1c(-c2ccccc2)ccc2nc(-c3cccc(CNCCN)c3)[nH]c12` [Compound 7] and `CC(=O)NCCNCc1ccc(-c2nc3ccc(-c4ccccc4)c(C)c3[nH]2)cc1` [Compound 10] are within 1.5-fold of each other in Kd: 461 nM for the first, 338 nM for the second.

For `CC(=O)NCCNCc1cccc(-c2nc3c(C)c(-c4ccccc4)ccc3[nH]2)c1` [Compound 1], the Kd was 153 nM.
